Read-outs that look alike come from different tables or passages of the source.
Assays:
[1] = Stability to decomposition: storage at 90° C. for one week
[2] = Crystallinity by X-ray diffraction, microscopy; type: physicochemical; conditions: X-ray diffraction, microscopy
Long term stability = type: physicochemical; conditions: in comparison to the free base form
[3] = Thermal analysis and polymorphic stability (DSC, TGA); type: physicochemical
Protocol: Polymorphism refers to the ability of a solid material to exist in more than one crystal structure or solid form.
Upon mild heating (about 50° C. to 60° C.), the water content is reduced which would make these salts and the free base form extremely difficult to handle and to process during production and formulation. In contrast the hydrate of the mono mesylate salt is thermally stable and polymorphic stable at much higher temperatures of considerably above 100° C. as judged by TGA.
Moreover, exactly one mol equivalent water is incorporated into the crystal structure wherein the hydrogen atoms of the water molecule form hydrogen bridges with oxygen atoms of two different mesylate molecules. This well-defined position in the crystal lattice (see FIG. 3) is verified by the fact that water is released from the crystal only at high temperature, starting at 160° C.

[4] = Water solubility, solubility screening; conditions: water
[5] = Pharmacokinetics, single and multiple dose applications in healthy volunteers; type: in vivo, humans
From the text: The plasma concentrations in humans exceeded those reached in in vivo and in vitro experiments sufficient to effectively treat herpes simplex virus infections in various animal models and to prevent viral replication in cell culture.

herpes simplex viruses = assay: Activity against herpes viruses; conditions: mainly herpes simplex viruses
[6] = Exposure in 26-week repeated dose toxicity study (mesylate monohydrate); type: in vivo; conditions: rats; for Cmax / AUC(0-t): rat, in vivo; for AUC(0-t): read-out: AUC(0-24); for Exposure ratio 26-wts/13-wts. AUC(0-24) / Exposure ratio 26-wts/13-wts. Cmax: day 1, mesylate monohydrate vs free base; for Exposure ratio 26-wts/13-wts AUC(0-24) / Exposure ratio 26-wts/13-wts Cmax: week 13, mesylate monohydrate vs free base
Protocol: The exposure of rats to N-[5-(aminosulfonyl)-4-methyl-1,3-thiazol-2-yl]-N-methyl-2-[4-(2-pyridinyl)phenyl]acetamide in a repeated dose 13-week toxicity study performed with the free base N-[5-(aminosulfonyl)-4-methyl-1,3-thiazol-2-yl]-N-methyl-2-[4-(2-pyridinyl)phenyl]acetamide (free base) was compared to the exposures observed in a 26-week repeated dose toxicity study performed with the mesylate monohydrate. In both studies, the test items were administered as 0.5% (w/v) tylose suspensions, and the concentrations were adjusted to the equivalents of free base N-[5-(aminosulfonyl)-4-methyl-1,3-thiazol-2-yl]-N-methyl-2-[4-(2-pyridinyl)phenyl]acetamide.

[7] = Stability to dissociation: stirring for one week at room temperature
[8] = female, 10 mg/kg/day, F, 10 mg/kg/day, day 1, 26-week toxicity study
[9] = female, 50 mg/kg/day, F, 50 mg/kg/day, day 1, 26-week toxicity study
[10] = female, 250 mg/kg/day, F, 250 mg/kg/day, day 1, 26-week toxicity study
[11] = male, 10 mg/kg/day, M, 10 mg/kg/day, day 1, 26-week toxicity study
[12] = male, 50 mg/kg/day, M, 50 mg/kg/day, day 1, 26-week toxicity study
[13] = male, 250 mg/kg/day, M, 250 mg/kg/day, day 1, 26-week toxicity study
[14] = mesylate monohydrate vs free base, 50 and 250 mg/kg/day

CS(=O)(=O)O.Cc1nc(N(C)C(=O)Cc2ccc(-c3ccccn3)cc2)sc1S(N)(=O)=O.O [Mesylate monohydrate, N-[5-(aminosulfonyl)-4-methyl-1,3-thiazol-2-yl]-N-methyl-2-[4-(2-pyridinyl)-phenyl]acetamide methanesulfonate monohydrate]
Stability to decomposition [1]: ++
Crystallinity [2]: +
Long term stability (Long term stability): superior
Thermal stability of hydrate [3]: stable
DSC ([3]; Differential Scanning Calorimetry): loss of water before melting
TGA ([3]; Thermogravimetric Analysis): 4.3%
Temperature at which the hydrate is thermally and polymorphic stable ([3]; as judged by TGA): above 100 °C
Temperature at which water is released from the crystal ([3]; starting temperature): ≥ 160 °C
solubility [4]: 1380 µg/mL
Plasma half lives [5]: long lasting half lives
Activity against herpes viruses (herpes simplex viruses): highly active
Cmax [6, 8]: 17.2 µg/mL
AUC(0-t) [6, 8]: 175 µg·h/mL
AUC(0-t) ([6]; female, 10 mg/kg/day, F, 10 mg/kg/day, week 13, 26-week toxicity study): 321 µg·h/mL
Cmax ([6]; female, 10 mg/kg/day, F, week 13, 26-week toxicity study): 26 µg/mL
Cmax [6, 9]: 77.8 µg/mL
AUC(0-t) [6, 9]: 913 µg·h/mL
AUC(0-t) ([6]; female, 50 mg/kg/day, F, 50 mg/kg/day, week 13, 26-week toxicity study): 1210 µg·h/mL
Cmax ([6]; female, 50 mg/kg/day, F, week 13, 26-week toxicity study): 106 µg/mL
Cmax [6, 10]: 146 µg/mL
AUC(0-t) [6, 10]: 2470 µg·h/mL
AUC(0-t) ([6]; female, 250 mg/kg/day, F, 250 mg/kg/day, week 13, 26-week toxicity study): 3580 µg·h/mL
Cmax ([6]; female, 250 mg/kg/day, F, week 13, 26-week toxicity study): 217 µg/mL
Cmax [6, 11]: 16.9 µg/mL
AUC(0-t) [6, 11]: 119 µg·h/mL
AUC(0-t) ([6]; male, 10 mg/kg/day, M, 10 mg/kg/day, week 13, 26-week toxicity study): 227 µg·h/mL
Cmax ([6]; male, 10 mg/kg/day, M, week 13, 26-week toxicity study): 21.8 µg/mL
Cmax [6, 12]: 70.3 µg/mL
AUC(0-t) [6, 12]: 634 µg·h/mL
AUC(0-t) ([6]; male, 50 mg/kg/day, M, 50 mg/kg/day, week 13, 26-week toxicity study): 959 µg·h/mL
Cmax ([6]; male, 50 mg/kg/day, M, week 13, 26-week toxicity study): 74.7 µg/mL
Cmax [6, 13]: 134 µg/mL
AUC(0-t) [6, 13]: 1980 µg·h/mL
AUC(0-t) ([6]; male, 250 mg/kg/day, M, 250 mg/kg/day, week 13, 26-week toxicity study): 2780 µg·h/mL
Cmax ([6]; male, 250 mg/kg/day, M, week 13, 26-week toxicity study): 169 µg/mL
Exposure ratio 26-wts/13-wts. AUC(0-24) ([6]; F, 10 mg/kg/day): 1.1
Exposure ratio 26-wts/13-wts. Cmax ([6]; F, 10 mg/kg/day): 1.1
Exposure ratio 26-wts/13-wts AUC(0-24) ([6]; F, 10 mg/kg/day): 1.5
Exposure ratio 26-wts/13-wts Cmax ([6]; F, 10 mg/kg/day): 1.0
Exposure ratio 26-wts/13-wts. AUC(0-24) ([6]; F, 50 mg/kg/day): 2.2
Exposure ratio 26-wts/13-wts. Cmax ([6]; F, 50 mg/kg/day): 2.2
Exposure ratio 26-wts/13-wts AUC(0-24) ([6]; F, 50 mg/kg/day): 2.6
Exposure ratio 26-wts/13-wts Cmax ([6]; F, 50 mg/kg/day): 2.6
Exposure ratio 26-wts/13-wts. AUC(0-24) ([6]; F, 250 mg/kg/day): 2.6
Exposure ratio 26-wts/13-wts. Cmax ([6]; F, 250 mg/kg/day): 2.1
Exposure ratio 26-wts/13-wts AUC(0-24) ([6]; F, 250 mg/kg/day): 3.1
Exposure ratio 26-wts/13-wts Cmax ([6]; F, 250 mg/kg/day): 2.6
Exposure ratio 26-wts/13-wts. AUC(0-24) ([6]; M, 10 mg/kg/day): 1.4
Exposure ratio 26-wts/13-wts. Cmax ([6]; M, 10 mg/kg/day): 1.3
Exposure ratio 26-wts/13-wts AUC(0-24) ([6]; M, 10 mg/kg/day): 1.7
Exposure ratio 26-wts/13-wts Cmax ([6]; M, 10 mg/kg/day): 1.5
Exposure ratio 26-wts/13-wts. AUC(0-24) ([6]; M, 50 mg/kg/day): 2.6
Exposure ratio 26-wts/13-wts. Cmax ([6]; M, 50 mg/kg/day): 2.3
Exposure ratio 26-wts/13-wts AUC(0-24) ([6]; M, 50 mg/kg/day): 2.9
Exposure ratio 26-wts/13-wts Cmax ([6]; M, 50 mg/kg/day): 2.5
Exposure ratio 26-wts/13-wts. AUC(0-24) ([6]; M, 250 mg/kg/day): 3.5
Exposure ratio 26-wts/13-wts. Cmax ([6]; M, 250 mg/kg/day): 2.5
Exposure ratio 26-wts/13-wts AUC(0-24) ([6]; M, 250 mg/kg/day): 4.2
Exposure ratio 26-wts/13-wts Cmax ([6]; M, 250 mg/kg/day): 2.7
Increase in extent of exposure, AUC [6, 14]: ≤ 4 fold
Increase in extent of exposure, Cmax [6, 14]: up to 2.7 fold
Stability to dissociation [7]: ++
